Among the test systems are SK-OV-3; UACC-62; SF-295; NCI-H23; NCI-H460; A549; SK-MEL-5; OVCAR-5; SF-268; CAKI-1; NCI-H522; HOP-92; OVCAR-3; HCC 2998; HOP-62; KM12; SN12C; SNB-75; COLO 205; HCT-15.
Test in all cases: NCI tumour cell line growth inhibition, 48 h

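Results reflect a 48-hour exposure of cells in 96-well plates to compound at five concentrations. GI50 is the concentration that inhibits growth by half.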 The source made the active and inactive calls. No stated cut-off is given here; in the data, active = GI50 up to about 1.1 µM and inactive = higher.

Experimental findings from ChEMBL document CHEMBL1201862, “PubChem BioAssay data set” (2004) are described below.

For the compound `O=c1[nH]c(=O)n(C2CC(O)C(CO)O2)cc1C(OCC(F)(F)F)OCC(F)(F)F` (stereo not given), the GI50 in the experiment on SK-OV-3, in the experiment on UACC-62, in the experiment on SF-295, in the experiment with NCI-H23, in the experiment on NCI-H460 and in the experiment on A549 was > 100 µM (inactive) each time. Moreover, the GI50 with SK-MEL-5, in the experiment with OVCAR-5, with SF-268, with CAKI-1, in the experiment on NCI-H522 and in the experiment on HOP-92 was > 100 µM (inactive) in each case. The GI50 in the experiment on OVCAR-3, in the experiment on HCC 2998, in the experiment with HOP-62, in the experiment on KM12, in the experiment with SN12C and with SNB-75 was > 100 µM (inactive) each time. Also, the GI50 with COLO 205 was > 100 µM (inactive).

Turning to `N#C/N=N/c1cc(Cl)c(/N=N/C#N)cc1Cl`, the GI50 in the experiment with HCT-15 was greater than 100 µM; in the experiment on SK-OV-3 it was > 100 µM (inactive); with UACC-62, > 100 µM (inactive); in the experiment on SF-295, > 100 µM (inactive); with NCI-H23, > 100 µM (inactive); in the experiment with NCI-H460 it was > 100 µM (inactive). In addition, the GI50 is > 100 µM (inactive) in the experiment with A549; > 100 µM (inactive) in the experiment with SK-MEL-5; > 100 µM (inactive) with OVCAR-5; > 100 µM (inactive) in the experiment with SF-268; 51.3 µM (inactive) with NCI-H522; > 100 µM (inactive) with HOP-92. Also, the GI50 in the experiment with OVCAR-3 was > 100 µM (inactive); in the experiment on HCC 2998 it was > 100 µM (inactive); in the experiment with HOP-62 it was > 100 µM (inactive); in the experiment on KM12, > 100 µM (inactive); with SN12C, > 100 µM (inactive); with SNB-75, 51.9 µM (inactive). For the same compound, the GI50 in the experiment on COLO 205 was 97.5 µM (inactive).

For the compound `C[Si](C)(C)/C=C/CN1C(=O)CCC1=O`, the GI50 with HCT-15 was greater than 100 µM; in the experiment with SK-OV-3 it was > 100 µM (inactive); with UACC-62, > 100 µM (inactive); in the experiment with NCI-H23 it was > 100 µM (inactive); in the experiment with NCI-H460, > 100 µM (inactive); in the experiment with A549 it was > 100 µM (inactive). In addition, the GI50 with SK-MEL-5, in the experiment with OVCAR-5, in the experiment on SF-268, in the experiment with NCI-H522, in the experiment with HOP-92 and in the experiment with OVCAR-3 was > 100 µM (inactive) in each case. The GI50 in the experiment on HCC 2998 was > 100 µM (inactive); in the experiment on KM12 it was > 100 µM (inactive); in the experiment on SN12C, > 100 µM (inactive); in the experiment with SNB-75, 83.2 µM (inactive); with COLO 205, > 100 µM (inactive).

Consider `CN(/N=C1\C(=O)Nc2ccccc21)c1ccccc1`, for which the GI50 was 44.2 µM in the experiment with HCT-15; > 100 µM (inactive) with SK-OV-3; > 100 µM (inactive) in the experiment with UACC-62; 40.7 µM (inactive) in the experiment on SF-295; 74.6 µM (inactive) in the experiment with NCI-H23; 91.8 µM (inactive) with NCI-H460. Besides, the GI50 in the experiment on A549 was 72.9 µM (inactive); in the experiment on SK-MEL-5, 32.6 µM (inactive); in the experiment on OVCAR-5 it was 45.6 µM (inactive); in the experiment on SF-268, 43.2 µM (inactive); with CAKI-1, 22.1 µM (inactive); in the experiment with NCI-H522, 87.3 µM (inactive). Besides, the GI50 in the experiment on HOP-92 is 22.5 µM (inactive); in the experiment with OVCAR-3, 33.7 µM (inactive); in the experiment with HCC 2998, > 100 µM (inactive); with HOP-62 it was 49.7 µM (inactive); in the experiment on KM12, 29.6 µM (inactive); with SNB-75, 2.32 µM (inactive). Further, in the experiment on COLO 205, the GI50 was > 10 µM (inactive).

Turning to `O=[N+]([O-])c1ccc2[nH]c3c(-c4ccccc4)nccc3c2c1`, the GI50 is 8.59 µM in the experiment on HCT-15; 12.9 µM (inactive) in the experiment with SK-OV-3; 14.8 µM (inactive) in the experiment on UACC-62; 18 µM (inactive) in the experiment on SF-295; 32.1 µM (inactive) in the experiment with NCI-H23; 14.4 µM (inactive) in the experiment on NCI-H460. For the same compound, the GI50 in the experiment on A549 is 15.6 µM (inactive); in the experiment on SK-MEL-5, 15.4 µM (inactive); in the experiment with OVCAR-5, 67.8 µM (inactive); with SF-268, 25 µM (inactive); with NCI-H522 it was 14.3 µM (inactive); in the experiment on HOP-92 it was 16.3 µM (inactive). In addition, the GI50 was 14.3 µM (inactive) in the experiment with OVCAR-3; 19.5 µM (inactive) in the experiment with HCC 2998; 14.7 µM (inactive) with HOP-62; 34.8 µM (inactive) in the experiment with KM12; 25.1 µM (inactive) in the experiment with SN12C; 11.7 µM (inactive) with SNB-75. The GI50 with COLO 205 was 34.2 µM (inactive).

For the compound `CN(C)C(=S)/N=c1\ssc(=S)n1C`, the GI50 is greater than 100 µM in the experiment with HCT-15; > 100 µM (inactive) in the experiment with SK-OV-3; > 100 µM (inactive) with UACC-62; > 100 µM (inactive) in the experiment on SF-295; > 100 µM (inactive) in the experiment on NCI-H23; > 100 µM (inactive) in the experiment with NCI-H460. For the same compound, the GI50 with A549, with SK-MEL-5, with OVCAR-5, with SF-268, in the experiment with CAKI-1 and in the experiment with NCI-H522 was > 100 µM (inactive) throughout. Also, the GI50 with HOP-92, in the experiment with HCC 2998, in the experiment with HOP-62, with KM12, in the experiment with SN12C and in the experiment with SNB-75 was > 100 µM (inactive) each time.

Take `COC(=O)c1cn(CC(O)CCl)nn1` (stereo not given): the GI50 in the experiment with HCT-15 was greater than 100 µM; with NCI-H23, > 100 µM (inactive); in the experiment with NCI-H460 it was > 100 µM (inactive); in the experiment with A549 it was > 100 µM (inactive); in the experiment with SK-MEL-5, > 100 µM (inactive); in the experiment with OVCAR-5, > 100 µM (inactive). For the same compound, the GI50 with SF-268, with CAKI-1, in the experiment with NCI-H522, with HOP-92, with OVCAR-3 and in the experiment on HCC 2998 was > 100 µM (inactive) in each case. In addition, the GI50 with HOP-62, in the experiment with KM12, with SN12C, with SNB-75 and in the experiment on COLO 205 was > 100 µM (inactive) throughout.

Take `CC(=O)OCC1OC(n2c3c(c(-c4ccco4)c(C#N)c2=S)CCC3)C(OC(C)=O)C(OC(C)=O)C1OC(C)=O` (stereo not given): the GI50 was greater than 100 µM in the experiment on HCT-15; > 100 µM (inactive) with SK-OV-3; 42.2 µM (inactive) in the experiment on UACC-62; > 100 µM (inactive) in the experiment on SF-295; > 100 µM (inactive) with NCI-H23; > 100 µM (inactive) in the experiment on NCI-H460. Further, the GI50 is > 100 µM (inactive) in the experiment on A549; 31.6 µM (inactive) in the experiment on SK-MEL-5; > 100 µM (inactive) in the experiment with OVCAR-5; > 100 µM (inactive) in the experiment with SF-268; 55.1 µM (inactive) with CAKI-1; 15.6 µM (inactive) in the experiment on HOP-92. For the same compound, the GI50 in the experiment with OVCAR-3 was > 100 µM (inactive); with HCC 2998, > 100 µM (inactive); with HOP-62, > 100 µM (inactive); with KM12, > 100 µM (inactive); in the experiment with SN12C it was > 100 µM (inactive); in the experiment on SNB-75 it was 23.4 µM (inactive). In the experiment with COLO 205, the GI50 was > 100 µM (inactive).

As for `Cc1cnc(/N=c2\sc(C)cn2-c2ncc(C)s2)s1`, the GI50 was greater than 100 µM with HCT-15; > 100 µM (inactive) in the experiment on SK-OV-3; > 100 µM (inactive) in the experiment on UACC-62; > 100 µM (inactive) in the experiment on SF-295; > 100 µM (inactive) in the experiment on NCI-H23; > 100 µM (inactive) in the experiment with NCI-H460. The GI50 with A549, in the experiment on SK-MEL-5, in the experiment with OVCAR-5, with SF-268, in the experiment on NCI-H522 and with HOP-92 was > 100 µM (inactive) in each case. Moreover, the GI50 was > 100 µM (inactive) in the experiment with OVCAR-3; > 100 µM (inactive) in the experiment with HCC 2998; > 100 µM (inactive) in the experiment on HOP-62; > 100 µM (inactive) in the experiment with KM12; > 100 µM (inactive) in the experiment with SN12C; 71.3 µM (inactive) in the experiment on SNB-75. For the same compound, the GI50 with COLO 205 was > 100 µM (inactive).

As to `O=c1[nH]nc(Cc2ccc(Cl)cc2)n1CCO`, the GI50 was greater than 100 µM in the experiment with HCT-15; > 100 µM (inactive) in the experiment on SK-OV-3; > 100 µM (inactive) in the experiment on UACC-62; > 100 µM (inactive) with SF-295; > 100 µM (inactive) in the experiment with NCI-H23; > 100 µM (inactive) with NCI-H460. In addition, the GI50 in the experiment with A549, in the experiment on SK-MEL-5, with OVCAR-5, with SF-268, with CAKI-1 and in the experiment on NCI-H522 was > 100 µM (inactive) each time. Also, the GI50 in the experiment with HOP-92, in the experiment with OVCAR-3, in the experiment on HCC 2998, in the experiment with KM12, with SN12C and in the experiment with COLO 205 was > 100 µM (inactive) each time.

Regarding `ClCC1(CCl)COC1`, the GI50 in the experiment with HCT-15 was greater than 100 µM; with SK-OV-3, > 100 µM (inactive); with SF-295, > 100 µM (inactive); with NCI-H23, > 100 µM (inactive); in the experiment with NCI-H460, > 100 µM (inactive); in the experiment on A549, > 100 µM (inactive). Also, the GI50 in the experiment with SK-MEL-5, with SF-268, in the experiment with NCI-H522, with HOP-92, in the experiment with OVCAR-3 and with HCC 2998 was > 100 µM (inactive) each time. For the same compound, the GI50 in the experiment with KM12, with SN12C, in the experiment on SNB-75 and in the experiment with COLO 205 was > 100 µM (inactive) each time.
